Measured values as given in BigSolDB 2.1.

C[C@@H]1O[C@@H](OC[C@H]2O[C@@H](Oc3c(-c4ccc(O)c(O)c4)oc4cc(O)cc(O)c4c3=O)[C@H](O)[C@@H](O)[C@@H]2O)[C@H](O)[C@H](O)[C@H]1O
solubility (mole fraction)
Conditions	273.2 K	283.2 K	293.2 K	303.2 K	313.2 K	323.2 K
in ethanol	0.00348	0.00372	0.00427	0.00515	0.00592	0.00653
in water	2.97e-06	5.29e-06	5.87e-06	8.22e-06	1.02e-05	1.42e-05
